According to patent US11319316B2, “Compounds that induce degradation of anti-apoptotic Bcl-2 family proteins and the uses thereof” (BioVentures, LLC, priority 2016, dated 2022):

Columns and labels:
Assay type in all cases: cell-based
Normal WI38 (NSC) = test: Viability of normal WI38 cells (NSC), 72 h, PI staining and flow cytometry; conditions: Homo sapiens, WI-38, viable (PI-) cells as percentage of vehicle control
Description: (§1) Normal WI38 (NSC) and IR-induced senescent WI38 cells (IR-SC) were incubated with vehicle or increasing concentrations of compounds of Formula (I) or Formula (II) for 72 hours. The cells were digested with 0.25% trypsin and 1 mM EDTA, and harvested in PBS containing 2% FBS. After incubation with propidium iodide (PI, 100 ng/ml) in PBS at room temperature for 1 minute, cells were centrifuged at 1,200 rpm for 6 minutes to remove PI and then resuspended in PBS containing 2% FBS for analysis using a flow cytometer. Viable cells (PI-cells) were analyzed by flow cytometry at a constant flow rate to count the number of cells and calculated as a percentage of control cells treated with vehicle. Table 1 depicts the EC50 values of the compounds of Formula (I) and compounds of Formula (II) against normal WI38 and IR-induced senescent WI38.

[1] = test system: IR-induced senescent WI38 cells (IR-SC); test: Viability of IR-induced senescent WI38 cells (IR-SC), 72 h, PI staining and flow cytometry
Description: as §1

RS4; 11 cancer cells = test: Cancer cell viability by MTS, 72 h, RS4;11; conditions: Homo sapiens, RS4;11 cells
Description: (§2) RS4; 11 and NCI-H146 cancer cells were incubated with vehicle or increasing concentrations of compounds of Formula (I) and Formula (II). At 72 hours post-treatment cell viability was measured by MTS and EC50 was calculated as a percentage of control cells treated with vehicle. Table 1 depicts the EC50 values of compounds of Formula (I) and Formula (II) against RS4; 11 and NCI-H146.

NCI-H146 cancer cells = test: Cancer cell viability by MTS, 72 h, NCI-H146; conditions: Homo sapiens
Description: as §2

Bcl-xL [2] = biological target: T1, Bcl-xL (Homo sapiens, UniProt Q07817); test: Protein degradation assay (Western blot) in IR-SC WI38 cells; conditions: 2 μM; FIG. 1
T1 construct: endogenous in cells; host or cells: WI38 cells (normal NC-WI38 and ionizing-radiation-induced senescent IR-SC WI38)
T1 sequence (Q07817 whole entry): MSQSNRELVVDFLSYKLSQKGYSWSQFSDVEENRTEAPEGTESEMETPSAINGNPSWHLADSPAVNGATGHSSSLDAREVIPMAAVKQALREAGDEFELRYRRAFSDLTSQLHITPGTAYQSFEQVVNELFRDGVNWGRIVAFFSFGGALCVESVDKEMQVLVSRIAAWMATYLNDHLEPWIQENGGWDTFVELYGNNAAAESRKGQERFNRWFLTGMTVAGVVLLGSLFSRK
Description: IR-SC WI38 cells were incubated with vehicle or increasing concentrations of XZ-14439 for 18 hours at increasing […] (FIG. 3A) and at a fixed concentration of XZ-14439 for increasing times (FIG. […]). The cells were digested with 0.25% trypsin and 1 mM EDTA, and harvested in RIPA lysis buffer with 1% Phosphatase Inhibitor Cocktail 3 and 1% Protease Inhibitor Cocktail. An equal amount of protein (15-30 μg/lane) from each cell extract was resolved on a 12% SDS-PAGE gel. Proteins were blotted onto a NOVEX PVDF membrane by electrophoresis. The membranes were blocked with TBS-T blocking buffer (5% nonfat milk in 25 mM Tris-HCL, pH 7.4; 3 mM KCl; […] NaCl; and 0.05% Tween) and probed with primary antibodies (at a predetermined optimal concentration) overnight at 4° C. or for 1 hour at room temperature. After extensive washing with TBS-T, the membranes were incubated with an appropriate peroxidase-conjugated secondary antibody for 1 hour at room temperature. After three washes with TBS-T, the proteins of interest were detected with ECL Western Blotting Detection Reagents and recorded with autoradiography (Pierce Biotech, Rockford, Ill., USA). The primary antibody Bcl-x (#2762), Bcl-2 antibody (#2872S) and β-actin (13E5, #4970) were purchased from Cell Signaling.
IR-SC WI38 (FIG. 4A) and RS4; 11 (FIG. 4B) cells were incubated with vehicle or increasing concentrations of compounds of Formula (I) or Formula (II) for 6 or 16 hours, at 1 μM (FIG. 4A) and 100 nm (FIG. 4B), respectively. The cells were harvested in RIPA lysis buffer with 1% Phosphatase Inhibitor Cocktail 3 and 1% Protease Inhibitor Cocktail. An equal amount of protein (15-30 μg/lane) from each cell extract was resolved on a 12% SDS-PAGE gel. Proteins were blotted onto a NOVEX PVDF membrane by electrophoresis. The membranes were blocked with TBS-T blocking buffer (5% nonfat milk in 25 mM Tris-HCL, pH 7.4; 3 mM KCl; 140 mM NaCl; and 0.05% Tween) and probed with primary antibodies (at a predetermined optimal concentration) overnight at 4° C. or for 1 hour at room temperature. After extensive washing with TBS-T, the membranes were incubated with an appropriate peroxidase-conjugated secondary antibody (Jackson ImmunoResearch Europe, Suffolk, UK) for 1 hour at room temperature. After three washes with TBS-T, the proteins of interest were detected with ECL Western Blotting Detection Reagents and recorded with autoradiography. The primary antibody Bcl-xl (#2762), Bcl-2 antibody (#2872S), Bcl-w (#2724S), Mcl-1 (#5453s) and β-actin (13E5, #4970) were purchased from Cell Signaling.

Bcl-xL [3] = biological target: T1, Bcl-xL; test: Bcl-xL depletion in normal WI38 (NC-WI38) cells; conditions: 2 μM; FIG. 1

`O=C1CCC(N2C(=O)c3cccc(NCCOCCOCCOCc4cn(CCCC(=O)N5CCN(CC#Cc6ccc(OCCCc7sc(N8CCc9cccc(C(=O)Nc%10nc%11ccccc%11s%10)c9C8)nc7C(=O)O)c(F)c6)CC5)nn4)c3C2=O)C(=O)N1` (stereo not shown) [XZ-13906, 2-(8-(benzo[d]thiazol-2-ylcarbamoyl)-3,4-dihydroisoquinolin-2(1H)-yl)-5-(3-(4-(3-(4-(4-(4-((2-(2-(2-(2-(2,6-dioxopiperidin-3-yl)-1,3-dioxoisoindolin-4-ylamino)ethoxy)ethoxy)ethoxy)methyl)-1H-1,2,3-triazol-1-yl)butanoyl)piperazin-1-yl)prop-1-ynyl)-2-fluorophenoxy)propyl)thiazole-4-carboxylic acid] was tested, and the EC50 (Normal WI38 (NSC)) was 100 µM, the EC50 ([1]; Homo sapiens, WI-38, IR-induced senescent WI38 cells, 72 hours, viable (PI-) cells as percentage of vehicle control) was 2.4 µM and the “Ratio NSC/SC” value ([1]; ratio of WI38 EC50 in NSC to EC50 in IR-SC) was 41.67. The EC50 (RS4; 11 cancer cells) was > 2 µM, the EC50 (NCI-H146 cancer cells) was > 2 µM and the “Bcl-xL depletion in IR-SC WI38 cells” value (Bcl-xL [2]) was “depletes Bcl-xL”. The “Bcl-xL depletion in normal WI38 (NC-WI38)” value (Bcl-xL [3]) was “depletes Bcl-xL”.
